These results are taken from paper PMC6382874, “Succinylation-dependent mitochondrial translocation of PKM2 promotes cell survival in response to nutritional stress” (Cell Death & Disease, 2019).

Experiment [1] has as its system PKM2 mitochondrial translocation. Put plainly: PKM2 mitochondrial translocation (fractionation, western blot) in HCT116 cells. The experiment is classed as cell-based, human. The following applies: for PKM2 mitochondrial translocation: HCT116, Supplementary Figure S1a. As to the method:
(§1) Fig. 6 Compound 8 blocks PKM2 mitochondrial translocation under nutritional stress and inhibits tumor growth in vivo. a Compound 8 blocks glucose starvation induced PKM2 mitochondrial translocation. Isolation of mitochondria and immunoblot of PKM2, tubulin and Tom 40 were carried out with or without compound 8 treatment. b Compound 8 disrupts interaction of PKM2 and VDAC3. HCT116 cells were transfected with HA-tagged PKM2, cells were harvested and subjected to stag pull down after 8 h 20 µM compound 8 treatment. c Compound 8 induces VDAC3 for degradation. cells were harvested and evaluated VDAC3 protein levels after 8 h 10 or 20 µM compound 8 treatment. d, e Compound 8 caused a decrease in the rate of NADH oxidation. After 8 h of treatment with 20 µM compound 8, HCT116 cells mitochondria were isolated for NADH oxidation assays. NAD/NADH ratios in HCT116 cell lysates were evaluated by LC–MS. f Compound 8 inhibited ATP production in HCT116 cells. g The tumor volume (n = 7) of HCT116 xenografts from mice with intraperitoneal injection of compound 8 and vehicle control
HCT116 cells were harvested and washed two times with cold PBS. Cells were then homogenized in a buffer (220 mM mannitol, 70 mM sucrose, 2 mM EGTA, 5 mM MOPS-Tris pH 7.4, 2 mM Taurine, 0.2% BSA). The homogenate was spun for 5 min at 800g.The supernatant containing the cytoplasmic and mitochondrial fractions were transferred to a fresh tube and spun for 5 min at 12,000g. The pellet contained the mitochondrial fraction and the supernatant contained the cytoplasmic fraction.
Cells were lysed in buffer containing 50 mM Tris pH8.0, 2 mM EDTA, 150 mM NaCl, 0.5% Nonidet P-40, 10% glycerol and protease inhibitor PMSF. Western blot analysis was carried out based on standard methods. The following commercial antibodies were used as probes: anti-Flag antibody (Sigma, F3165), anti-HA antibody (Sigma, H3663), anti-α-Tubulin (EasyBio, BE0026–100), anti-PKM2 (RuiYingBio, RLT3777), anti-TOM 40 (Santa Cruz sc-365467), anti-succinyllysine antibody (PTM BIO PTM-901), anti-GAPDH (SanJian).
(A western blot detects proteins with antibodies after separation by electrophoresis.)

Another experiment deals with PKM2 succinylation. The following applies: 100 μM, 10 h, HCT116.
A further experiment concerns the target T1, PKM1 (Homo sapiens, UniProt P14618).
T1 construct: His-tag (N); made in house; host or cells: Escherichia coli BL21
Put plainly: fluorescent PK-LDH coupled assay, PKM1. The experiment is classed as biochemical. The protocol: (§2) Human cDNA for PKM2, PKM1, and VDAC3 were separately cloned into a pET28a (+) and pGEX-4T-1 vector with an N-terminal His-tag and N-terminal GST-tag and purified from the Escherichia coli strain BL21 (Invitrogen) using Ni–agarose beads and GST agarose beads (Qiagen) as described previously. PKL was purchased from Sino Biological Inc. in China.
(§3) Pyruvate kinase activity was measured with a fluorescent pyruvate kinase–lactate dehydrogenase coupled assay as described previously. All compounds were tested in a kinetic mode by coupling the generation of pyruvate by pyruvate kinase to the depletion of NADH through lactate dehydrogenase. For PKM2, 40 μL of buffer (50 mM Tris–HCl, pH 7.5, 10 mM KCl, 5 mM MgCl2), 1 μL of compound and 5 μL of enzyme solution were dispensed into Corning black solid 96-well plates and incubated for 15 min. Totally, 55 μL of substrate mix (final concentration, 0.5 mM PEP, 4.0 mM ADP, 0.12 mM NADH, 0.25 mM FBP, and 1 unit LDH) were then added, and the plates were placed in a FlexStation3 (Molecular Devices), followed by determination of NADH fluorescence at 30 s exposure intervals for 3–6 min. Data were collected on a FlexStation3.

The target in a further experiment is T2, PKL (Homo sapiens, UniProt P30613).
T2 construct: purchased Sino Biological Inc
T2 sequence (P30613 1-543 isoform P30613-2, species assumed): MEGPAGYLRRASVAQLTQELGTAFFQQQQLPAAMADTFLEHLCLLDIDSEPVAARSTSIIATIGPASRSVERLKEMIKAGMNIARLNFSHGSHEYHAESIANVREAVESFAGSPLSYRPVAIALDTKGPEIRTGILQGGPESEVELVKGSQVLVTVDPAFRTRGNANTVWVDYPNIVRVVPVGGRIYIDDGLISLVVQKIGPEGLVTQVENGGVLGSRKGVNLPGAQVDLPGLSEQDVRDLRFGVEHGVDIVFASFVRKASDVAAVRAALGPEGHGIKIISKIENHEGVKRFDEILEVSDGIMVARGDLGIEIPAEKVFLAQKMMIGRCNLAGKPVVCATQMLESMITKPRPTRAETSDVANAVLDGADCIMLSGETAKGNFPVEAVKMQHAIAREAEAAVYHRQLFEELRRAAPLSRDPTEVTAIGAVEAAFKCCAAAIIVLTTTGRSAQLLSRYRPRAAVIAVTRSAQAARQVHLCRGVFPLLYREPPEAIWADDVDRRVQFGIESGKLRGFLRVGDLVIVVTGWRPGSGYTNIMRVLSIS
Put plainly: fluorescent PK-LDH coupled assay, PKL. The class given is biochemical. As to the method: as §2, §3

For a further experiment, the system named is HCT116 cells. Nature of the experiment: cell viability test, HCT116. As to conditions: Homo sapiens, HCT-116, 48 h, read-out: IC50 (HCT116). The class given is cell-based, human. The protocol:
(§4) We assessed the anti-tumor effects of compound 8 by evaluation of cancer cell viability. Compound 8 reduced cell viability with an IC50 of about 5 µM in MTT reduction assays in HCT116, MCF7, and H1299 cells (Table 2). […] To determine whether cancer cell death brought about by compound 8 is PKM2 dependent, PKM2 was knocked down in HCT116 cells using two different shRNA sequences that specifically targeted exon 10 without interfering with PKM1 expression. Compound 8 is an inhibitor which causes a loss of function of PKM2. If PKM2 is a specially targeted by compound 8, its knockdown should render cells more vulnerable to compound 8-mediated PKM2 inhibition since shRNA and compound 8 work synergistically by reducing the intracellular drug target concentration.
(§5) Cells were seeded in 96-well plates at 5000 cells/well in DMEM media overnight. Cells were treated with different concentrations of test compound for 48 h at 37 °C in 5% CO2. Cell viability was assayed with the MTS assay (Promega) and trypan blue staining according to the manufacturer’s instructions.

The test system of the next experiment is MCF7 cells. Put plainly: cell viability test, MCF7. As to conditions: Homo sapiens, MCF7, 48 h, read-out: IC50 (MCF7). The class given is cell-based. The protocol: as §4, §5
For another experiment, the system named is H1299 cells. Nature of the experiment: cell viability test, H1299. The class given is cell-based. The following applies: Homo sapiens, NCI-H1299, 48 h, read-out: IC50 (H1299). The protocol: as §4, §5
Experiment [2] deals with PKM2 (Homo sapiens, UniProt P14618). Put plainly: fluorescent pyruvate kinase-lactate dehydrogenase (PK-LDH) coupled assay, PKM2. The class given is biochemical. Also noted: His-tag (N); made in house; host or cells: Escherichia coli BL21. The protocol:
A random screening of an in-house small molecule library (~1000 total molecules) was undertaken to identify new PKM2 modulators, which can block the interaction of PKM2 and VDAC3. The activity of these test compounds was assessed with a fluorescent PK-LDH coupled assay by a previously reported method (Supplementary Figure S4a)[37]. […] We undertook structural optimization by chemical modification. We designed new compounds utilizing a methyl group instead of the NP-1 chlorine moiety. Synthesis of target compounds was carried out according to the six-step protocol outlined in Supplementary Figure S4d, which was based on a previously described procedure[39],[40].
as §2, §3

In experiment [3] the test system is PKM2. Also noted: method as in PMID 20005212. The following applies: high-throughput screen; cited from earlier work.
A further experiment relates to tumor cell. As to conditions: cited from earlier work.
Another experiment has as its system VDAC3. Nature of the experiment: VDAC3 protein level (western blot) in HCT116 cells. The following applies: 10 μM, 8 h, HCT116. The experiment is classed as cell-based, human.
Text: HCT116 cell lysates were subject to immunoprecipitation with control IgG and anti-VDAC3 antibodies. d, e In vitro binding assay of purified His-tagged-PKM2 and GST-tagged-VDAC3. f K433E enhanced the interaction of PKM2 and VDAC3. Stagged-WT PKM2, a succinylation mimic K433E and a succinylation null mutant K433R and flag-VDAC3 were co-transfected into HCT116 cells for Stag bead pull down that specially pulls down Stagged proteins. g Glucose starvation enhanced the interaction of PKM2 and VDAC3. […]
as §1, with “Isolation of mitochondria and immunoblot of PKM2, tubulin and Tom 40 were carried out with or without compound 8 treatment. b Compound 8 disrupts interaction of PKM2 and VDAC3.” left out, “After 8 h of treatment with 20 µM compound 8, HCT116 cells mitochondria were isolated for NADH oxidation assays.” left out, “control […]” for “control”

Where two headings read alike, the source gives them in different places. Peptide text beside a SMILES is read from it. * marks the point of attachment. Cbz = O=C(OCc1ccccc1)*

PKM2 (Homo sapiens, UniProt P14618), sequence (P14618 whole entry): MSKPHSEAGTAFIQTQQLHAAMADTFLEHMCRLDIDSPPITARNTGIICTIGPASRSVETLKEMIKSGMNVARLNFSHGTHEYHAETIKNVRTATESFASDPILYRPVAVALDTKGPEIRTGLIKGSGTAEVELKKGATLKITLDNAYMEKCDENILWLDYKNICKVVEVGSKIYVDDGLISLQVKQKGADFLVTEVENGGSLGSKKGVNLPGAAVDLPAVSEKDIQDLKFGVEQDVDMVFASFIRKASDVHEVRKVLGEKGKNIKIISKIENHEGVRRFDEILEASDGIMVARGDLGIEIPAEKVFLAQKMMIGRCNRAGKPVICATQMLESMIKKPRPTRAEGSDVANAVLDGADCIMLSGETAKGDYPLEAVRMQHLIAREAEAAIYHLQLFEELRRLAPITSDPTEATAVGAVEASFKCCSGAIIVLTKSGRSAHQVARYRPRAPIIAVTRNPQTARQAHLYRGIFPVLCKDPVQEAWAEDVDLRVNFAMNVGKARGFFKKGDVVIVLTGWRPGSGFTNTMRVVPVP
T1 sequence (P14618 1-531 isoform P14618-2): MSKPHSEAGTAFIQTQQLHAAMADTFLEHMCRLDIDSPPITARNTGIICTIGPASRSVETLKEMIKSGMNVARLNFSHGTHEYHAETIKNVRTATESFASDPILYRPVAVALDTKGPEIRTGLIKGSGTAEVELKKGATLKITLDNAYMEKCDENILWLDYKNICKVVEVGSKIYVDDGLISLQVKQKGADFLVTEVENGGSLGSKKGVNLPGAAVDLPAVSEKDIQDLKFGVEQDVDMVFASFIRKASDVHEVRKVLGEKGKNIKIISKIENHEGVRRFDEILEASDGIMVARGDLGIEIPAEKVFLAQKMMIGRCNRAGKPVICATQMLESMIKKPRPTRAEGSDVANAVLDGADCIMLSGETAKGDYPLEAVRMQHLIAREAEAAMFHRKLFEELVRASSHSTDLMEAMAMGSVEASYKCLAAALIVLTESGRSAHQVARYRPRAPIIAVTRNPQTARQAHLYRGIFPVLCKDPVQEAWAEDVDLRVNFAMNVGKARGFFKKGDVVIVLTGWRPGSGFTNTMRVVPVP
Method for PKM2 succinylation: Mitochondria and nuclear fractions were prepared from HCT116 cells under glucose starvation for 10 h. Immunofluorescence analysis was carried out after 10 h of glucose starvation. […] Analysis of PKM2 succinylation in whole-cell extracts prepared from HCT116 cells treated with increasing concentrations of glucose (0, 5, and 25 mM) or SIRT5 overexpression. Lysates prepared from these cells were pulled down with Flag beads and analyzed with antibody to succinylated lysine. d Effect of glucose starvation on endogenous PKM2 succinylation in cells. Analysis of PKM2 succinylation in whole-cell extracts prepared from HCT116 cells treated with increasing concentrations of glucose (0 and 25 mM). […] HCT116 cells were transfected with expression constructs of GFP-tagged vector control GFP-SIRT5. After 10 h glucose starvation, western blot analysis of cytosolic and mitochondrial fractions was performed to evaluate translocation of PKM2 from the cytosolic compartment to the mitochondria. […] 5000 HCT116 cells stably infected with Flag-PKM2 or Flag-PKM2 K433E virus were seeded into 96-well plates and live cell counts were measured in a blood cell counting chamber with trypan blue staining.

For the compound `O=C(O)CCC(=O)O` [succinic acid, reference compound], the “mitochondrial PKM2” value in [1] (100 μM, 10 h, HCT116) is on record as “increased mitochondrial PKM2”. The PKM2 succinylation result with PKM2 succinylation is “increased PKM2 succinylation”.
As for “insulin: hormone used to stimulate HCT116 cells”, the PKM2 mitochondrial translocation result in [1] is reported as “did not increase PKM2 mitochondrial translocation”.
By IC50 is commonly meant the midpoint of a concentration-inhibition curve. Turning to `CC1=C(COP(N)(=O)N(CCCl)CCCl)C(=O)c2ccccc2C1=O` (stereo not drawn) [NP-1], the IC50 against PKM1 is 13.7 ± 1.14 µM; at PKL, 69.6 ± 6.26 µM; in the experiment on HCT116 cells, 14.3 ± 3.57 µM; with MCF7 cells, 17.5 ± 6.34 µM; in the experiment on H1299 cells, 8.17 ± 1.92 µM; against PKM2 [2] it was 2.93 ± 0.77 µM. Further, on PKM2 [2] (Supplementary Figure S4b), the “PKM2 inhibitory activity compared with shikonin” value was “more powerful than shikonin”. For the same compound, at PKM2 [2] (Supplementary Figure S4c), the “selectivity for PKM2 over PKM1 and PKL” value is “highly selective, dose-dependent inhibition of PKM2 with less inhibition of PKM1 and PKL”.
Take `Cc1ccc(C)n1-c1ccc(O)c(C(=O)O)c1` [Compound 3]: the PKM2 inhibition result in the experiment on PKM2 [3] is given as “inhibits PKM2 activity at micromolar concentrations”. In the experiment on tumor cell, the “suppression of tumor cell proliferation” value is “little suppression of tumor cell proliferation below 200 µM”.
Take “epidermal growth factor: growth factor used to stimulate HCT116 cells”: the PKM2 mitochondrial translocation entry in [1] is “did not increase PKM2 mitochondrial translocation”.
Take `CC(C)=CC[C@@H](O)C1=CC(=O)c2c(O)ccc(O)c2C1=O` [Shikonin, reference compound]: the 50% inhibitory concentration (IC50) on PKM1 (recombinant enzyme, PK-LDH coupled assay, read-out: IC50 (PKM1)) amounted to 13 ± 3.37 µM; at PKL (PK-LDH coupled assay, read-out: IC50 (PKL)) it was 39.2 ± 6.53 µM. Also, the “induction of cell apoptosis” value with tumor cell is listed as “induces cell apoptosis at low concentrations”.
Take `CC(C)C[C@@H](C=O)NC(=O)[C@H](CC(C)C)NC(=O)[C@H](CC(C)C)NC(=O)OCc1ccccc1` [MG132, reference compound] (Cbz-Leu-Leu-Leu-aldehyde): the VDAC3 protein level result in the experiment with VDAC3 is “upregulated VDAC3”.
